Experimental data reported in patent publication US20080090916A1, “Compounds for Treating Urinary Incontinence” (priority 2005, published 2008).
“Also recorded” adds a separate entry of the source.

Assays:
[1] = test system: vesicourethral junction sphincter muscle strips; test: Enzyme assay: regeneration of 1R,2S-methoxamine from compound (Ia) by gamma glutamyl transferase, reaction product tested on muscle strips; type: cell-based, pig; conditions: for response of muscle strips: 0.3 mM
Procedure: Regeneration of 1R,2S-methoxamine from the Compound of Formula (Ia)
Into a clean glass vial (1 ml volume) the following reaction mixtures were pipetted as follows:
200 μl compound of formula (Ia), 10 mg/ml in Tris buffer (mol. wt. 376, therefore=2 mg compound of formula (Ia)=5.3 μMoles), 100 μl solution E
Reaction product of groups 1, 2 and 3 were only tested for biological activity after 30 minutes of incubation period at 37° C. while that of group 4 were also tested after, 10, 30 and 60 minutes of incubation period. A 5 h group of which reaction mixture indicated in group four were diluted by two fold after 30 min incubation were also tested for biological activity.
Gamma glutamyl transferase, 2-1-18 porcine kidney was purchased from Calzyme Labs San Luis Obispo, Calif. 93401 USA, glyclglycine was obtained from Acros Organics, New Jersey, USA while L-glutamic acid 5-(4-nitroanilide) was purchased from Fluka Chemie Switzerland.
The reaction mixture was incubated in HOT BOX oven, size one incubator made by Gallenpark, England, while the absorbance was measured (@λmax 405 nm), using Anthos 2020 UV/VIS spectrophotometer.
Representative traces of pig vesicourethral junction sphincter muscle response to various enzyme reaction products are shown in FIG. 3 and representative traces of pig proximal sphincter muscle response to various enzyme reaction products are shown in FIG. 4. The enzyme reaction products tested are as follows: • FIG. 3a-50 mM Tris HCl buffer; • FIG. 3b-50 mM Tris HCl buffer, gamma glutamyl transferase. • FIG. 3c-50 mM Tris HCl buffer, MgCl2.6H2O, glycylglycine, compound of formula (Ia); • FIG. 4a-50 mM Tris HCl buffer, MgCl2.6H2O, glycylglycine, gamma glutamyl transferase, compound of formula (Ia); • FIG. 4b-0.3 mM 1R,2S-methoxamine.

[2] = test system: pig vesicourethral junction sphincter muscle; test: Functional assay: dose response on isolated pig vesicourethral junction sphincter muscle strips; type: cell-based
Excerpt: Samples of female white landrace pig bladder and urethra were obtained from freshly slaughtered pigs at the local abattoir. The pigs were killed by exsanguination after initial stunning by electric shock. The anus, rectum, bladder and urethra were then excised en bloc during evisceration and immediately transferred into pre oxygenated Krebs' solution (1 mmol/l: NaCl 120, KCl 5.9 NaHCO3 15.4, CaCl2 2.5, MgCl2 1.2, glucose 11.5) and transported to the laboratory, where they were stored in the refrigerator (at 4° C.) until ready to be processed.
The location of the vesicourethral junction sphincter was then identified. The bladders were inflated via a transurethral catheter with 200 ml. fluid. The fluid was then gently squeeze towards the outlet, until a sharp narrowing of the bladder base becomes apparent (Dass, 1997; Dass et al., 2001). Tissue sections from this region were then denuded of urothelium, and dissected transversely into a number of muscle strips.
Muscle strips measuring about 5-6 mm by 2-3 mm with an average weight of 7 mg were dissected, fine (5/0) silk threads were tied at each end of the strips and each strip mounted vertically in a 0.2 ml capacity, perspex organ bath between two recessed platinum electrodes through which electrical field stimulation (EFS) could be delivered. Strips were constantly superfused with Krebs' solution (37° C.) at a rate of 1.5 ml 1 min. The Krebs' solutions were gassed with 97% oxygen 3% carbon dioxide. Drugs were delivered by substituting drug containing solutions of the desired concentration for Krebs' solutions.
The apparatus comprised of six organ baths in parallel allowing the study of six strips simultaneously as described by Brading and Sibley (1983). Each channel was calibrated with a 1 g weight attached to the transducer before each experiment, and tissues were tensioned to 1 g after mounting. Isomeric tension generated by the strips was measured using isomeric force displacement transducers, Pioden Dynamometer UFI transducers (Pioden Controls Ltd, Canterbury, Kent) or AD Instruments MLT050/D force transducers, amplified (Harvard Transducer/Amplifier, Harvard Apparatus Ltd, Edenbridge, Kent) and analyzed using MacLab Data Acquisition system (AD Instruments, Sydney, Australia) or AD Instruments OCTAL Bridge Amplifier connected to Power Lab/8SP (AD Instruments, Sydney, Australia) and Chart v3.6 software (Macintosh) or Chart v5 (PC).
Dose response curves for the various compounds were constructed by testing one drug on a pair of strip in each experiment. The preparations were subjected to a sequence of successive 10 s […] applications of increasing doses of drugs with intervening washout periods.
1R,2S-methoxamine hydrochloride, the compound of formula (Ia) and the compound of formula (III) were made available by Norgine International Research, Middlesex.
Responses were reported as either grams of tension or % maximum force and given as mean values ±SEM. EC50 values were used as a measure of potency. The EC50 values were measured from the graph of dose response curve using the kaleidograph graphical software applications. Results were assessed using statistical analysis software, StatView 5.0 (SAS Institute Inc.) using ANOVA followed by Fisher's test. Significant difference between data was assumed with p<0.05.

COc1ccc(OC)c([C@@H](O)[C@H](C)NC(=O)CC[C@H](N)C(=O)O)c1 [compound of formula (Ia), (S)-2-Amino-4-[(1S,2R)-2-(2,5-dimethoxyphenyl)-2-hydroxy-1-methyl-ethylcarbamoyl]butyric acid]
response of muscle strips ([1]; prepared in saline): 1.15 g
response of muscle strips ([1]; prepared in tris buffer): 1.22 g
reduction of bladder activity of the reaction mixture ([1]; 2-fold dilution post 30 min incubation with the enzyme): 38%
contractile response ([1]; Mg^2+-glycylglycine-compound-enzyme mixture, 30 min incubation): 1.62 g
contractile response of pig bladder neck muscle ([1]; administered with gamma glutamyl transferase and glycylglycine, FIG. 4a): pronounced well defined contractile response
contractile response ([1]; buffer-Mg^2+-glycylglycine-compound, no enzyme, 30 min incubation): 0.12 g
contractile response ([1]; reaction mixture with enzyme, 10 min incubation): 1.52 g
contractile response ([1]; reaction mixture with enzyme, 60 min incubation): 1.10 g
EC50 ([2]; Sus scrofa, contraction, from dose response curve, read-out: relative potencies (EC50)): 4.64 mM
contractile response of muscle strip (representative traces) ([2]; compound alone, FIG. 1): no significant contraction; also recorded: little or no activity
response over the dose range tested ([2]; dose range 10^−6M-10^−2M): failed to evoke any appreciable response
